Test results: US7405299B2, “Compounds as pharmaceutical agents” (Eli Lilly and Company, priority 2003, dated 2008)

| melting point [°C] | Compound |
| --- | --- |
| 140 to 142 | c1ccc(-c2nn3c(c2-c2cccc4nsnc24)CCC3)nc1 [Example 4, 4-[2-(Pyridin-2-yl)-5,6-dihydro-4H-pyrrolo[1,2-b]pyrazol-3-yl]-benzo [2,1,3]thiadiazole] |
| 184 to 186 | c1ccc(-c2nn3c(c2-c2ccc4nsnc4c2)CCC3)nc1 [Example 5, 5-[2-(Pyridin-2-yl)-5,6-dihydro-4H-pyrrolo[1,2-b]pyrazol-3-yl]benzo[2,1,3]thiadiazole] |
| 170 to 172 | c1ccc(-c2nn3c(c2-c2nc4ncccc4[nH]2)CCC3)nc1 [Example 8, 2-[2-(Pyridin-2-yl)-5,6-dihydro-4H-pyrrolo[1,2-b]pyrazol-3-yl]-1H-imidazo[4,5-b]pyridine] |
| 201 to 203 | c1ccc(-c2nn3c(c2-c2nc4cnccc4[nH]2)CCC3)nc1 [Example 9, 2-[2-(Pyridin-2-yl)-5,6-dihydro-4H-pyrrolo[1,2-b]pyrazol-3-yl]-1H-imidazo[4,5-c]pyridine] |
| 172 to 175 | c1ccc(-c2nn3c(c2-c2nc4ccccc4[nH]2)CCC3)nc1 [Example 10, 2-[2-(Pyridin-2-yl)-5,6-dihydro-4H-pyrrolo[1,2-b]pyrazol-3-yl]-1H-benzoimidazole] |
| 182 to 184 | c1ccc(-c2nn3c(c2-c2nc4ncccc4o2)CCC3)nc1 [Example 11, 2-[2-(Pyridin-2-yl)-5,6-dihydro-4H-pyrrolo[1,2-b]pyrazol-3-yl]-oxazolo[4,5-b]pyridine] |
| 180 to 184 | c1ccc(-c2nn3c(c2-c2cncc4cccnc24)CCC3)nc1 [Example 80a, 8-(2-Pyridin-2-yl-5,6-dihydro-4H-pyrrolo[1,2-b]pyrazol-3-yl)-[1,6]naphthyridine] |
